Experimental findings from ChEMBL document CHEMBL4270569, “Crystal structure of the Eg5 - K858 complex and implications for structure-based design of thiadiazole-containing inhibitors” (Eur J Med Chem, 2018) are described below.

The structures appear in SMILES notation.

The first assay deals with T1, Kinesin-like protein KIF11 (Homo sapiens, UniProt P52732).
T1 sequence (P52732 whole entry): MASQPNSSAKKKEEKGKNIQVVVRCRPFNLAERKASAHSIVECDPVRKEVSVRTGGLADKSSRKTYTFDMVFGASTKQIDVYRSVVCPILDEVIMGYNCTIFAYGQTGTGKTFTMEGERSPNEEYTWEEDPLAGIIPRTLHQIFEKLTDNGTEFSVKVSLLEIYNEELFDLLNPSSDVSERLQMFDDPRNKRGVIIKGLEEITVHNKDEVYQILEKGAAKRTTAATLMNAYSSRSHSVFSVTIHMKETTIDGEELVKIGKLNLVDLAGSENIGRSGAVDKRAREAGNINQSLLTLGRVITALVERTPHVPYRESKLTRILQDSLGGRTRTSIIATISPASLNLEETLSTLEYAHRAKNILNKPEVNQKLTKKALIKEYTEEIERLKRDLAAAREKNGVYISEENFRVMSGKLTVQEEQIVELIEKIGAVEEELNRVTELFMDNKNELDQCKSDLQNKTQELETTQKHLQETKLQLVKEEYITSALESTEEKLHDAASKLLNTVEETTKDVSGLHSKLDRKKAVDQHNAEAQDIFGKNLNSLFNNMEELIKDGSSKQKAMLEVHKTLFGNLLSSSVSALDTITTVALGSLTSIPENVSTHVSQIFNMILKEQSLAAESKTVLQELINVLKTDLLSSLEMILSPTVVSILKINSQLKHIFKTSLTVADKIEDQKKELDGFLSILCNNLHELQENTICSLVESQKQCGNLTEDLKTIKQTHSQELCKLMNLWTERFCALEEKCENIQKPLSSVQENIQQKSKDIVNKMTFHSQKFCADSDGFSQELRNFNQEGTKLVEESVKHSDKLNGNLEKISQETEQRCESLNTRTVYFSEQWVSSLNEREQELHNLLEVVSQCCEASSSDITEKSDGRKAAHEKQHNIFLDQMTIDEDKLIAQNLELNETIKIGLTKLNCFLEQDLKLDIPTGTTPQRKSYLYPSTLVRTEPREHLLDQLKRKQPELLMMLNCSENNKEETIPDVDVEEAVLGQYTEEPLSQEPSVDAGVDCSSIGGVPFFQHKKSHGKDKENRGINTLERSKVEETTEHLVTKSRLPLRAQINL
Kind of assay: Inhibition of microtubule-stimulated human Eg5 ATPase activity.
A word on the IC50: it is the concentration that inhibits the measured activity by half. In turn, `CCNCCS(=O)(=O)NC[C@@]1(c2ccccc2)SC(NC(=O)C(C)(C)C)=NN1C(=O)C(C)(C)C` [LITRONESIB] returned an IC50 of 0.026 µM. This counts as double-digit nanomolar.

A further assay has as its target T1, Kinesin-like protein KIF11. As to the kind of experiment: Binding affinity to N-terminal His6-tagged human Eg5 motor domain (1 to 368 residues) expressed in Escherichia coli BL21 (DE3) by isothermal titration calorimetry method. (ITC needs no label: the signal is the heat of the interaction.)
By Kd is commonly meant the equilibrium constant for the complex coming apart. A high value points to a looser complex. The compound `CC(=O)NC1=NN(C(C)=O)C(C)(c2ccccc2)S1` (centres undefined) gave a Kd of 0.665 µM. This lies in the sub-micromolar range.
In turn, `CC(=O)NC1=NN(C(C)=O)[C@](C)(c2ccccc2)S1` yielded a Kd of 0.22 µM.

In a further assay the target is T1, Kinesin-like protein KIF11. As to the kind of experiment: Inhibition of basal ATPase activity of N-terminal His6-tagged human Eg5 motor domain (1 to 368 residues) expressed in Escherichia coli BL21 (DE3) by pyruvate kinase-lactate dehydrogenase coupled assay.
Regarding `CC(=O)NC1=NN(C(C)=O)C(C)(c2cccs2)S1` (centres undefined), 1.7 µM corresponded to half-maximal inhibition (IC50). In other words, the single-digit micromolar range.
The compound `CC(=O)NC1=NN(C(C)=O)C(C)(c2cccnc2)S1` (centres undefined) displayed an IC50 of 8.5 µM.
For the compound `CC(=O)NC1=NN(C(C)=O)C(C)(c2ccc(Cl)s2)S1` (centres undefined), inhibition was half-maximal at 0.95 µM (IC50).
Turning to `CC(=O)NC1=NN(C(C)=O)C(C)(c2ccccc2)S1` (centres undefined), the 50% inhibitory concentration (IC50) turned out to be 0.74 µM.
For the compound `CC(=O)NC1=NN(C(C)=O)C(C)(c2ccco2)S1` (centres undefined), it took 4.3 µM to reach half-maximal inhibition (IC50).
On to `CC(=O)NC1=NN(C(C)=O)C(C)(c2ccc3ccccc3c2)S1` (centres undefined), for which the IC50 amounted to 15.6 µM.
On the same count and under the same terms, the value for `CC(=O)NC1=NN(C(C)=O)C(C)(c2ccccn2)S1` (centres undefined) was 37.2 µM; that for `CC(=O)NC1=NN(C(C)=O)C(c2ccccc2)S1` (centres undefined) was 20 µM; that for `CCC1(c2ccccc2)SC(NC(C)=O)=NN1C(C)=O` (centres undefined) was 1.46 µM.
On the same count and under the same terms, the value for `CC(=O)NC1=NN(C(C)=O)C(C)(c2ccc(OC(C)=O)cc2)S1` (centres undefined) was 5.1 µM; that for `CC(=O)NC1=NN(C(C)=O)C(C)(c2cc(F)ccc2F)S1` (centres undefined) was 0.84 µM.
On to `CC(=O)NC1=NN(C(C)=O)C(c2cc(F)ccc2F)S1` (centres undefined), for which the IC50 was determined as 41.1 µM. This IC50 lies about 49-fold higher than the previous one.
In turn, `CC(=O)NC1=NN(C(C)=O)C(C)(c2cccc3ccccc23)S1` (centres undefined) gave a 50% inhibitory concentration (IC50) of 1.9 µM. Compared with the last compound, the IC50 is about 22-fold lower.
On the same count and under the same terms, the result for `CC(=O)NC1=NN(C(C)=O)[C@](C)(c2ccccc2)S1` reads 0.58 µM; that for `CC(=O)NC1=NN(C(C)=O)C(C)(c2cnccn2)S1` (centres undefined), 46.9 µM; that for `CC(=O)NC1=NN(C(C)=O)C(C)(c2ccsc2)S1` (centres undefined), 2.2 µM.
`CC(=O)NC1=NN(C(C)=O)C(C)(C2CCCCC2)S1` (centres undefined) returned a half-inhibitory concentration (IC50) of 7.5 µM.
For the compound `CC(=O)NC1=NN(C(C)=O)C(c2cccc3ccccc23)S1` (centres undefined), half-maximal inhibition (IC50) was put at 53.9 µM. Compared with the last compound, the IC50 is about 7.2-fold higher.
For `CC(=O)NC1=NN(C(C)=O)C(C)(c2ccncc2)S1` (centres undefined), the midpoint of inhibition, the IC50, lay at 59.9 µM.

Another assay deals with T1, Kinesin-like protein KIF11. As to the kind of experiment: Inhibition of N-terminal His6-tagged microtubule-stimulated ATPase activity of human Eg5 motor domain (1 to 368 residues) expressed in Escherichia coli BL21 (DE3) by pyruvate kinase-lactate dehydrogenase coupled assay.
Compound `CC(=O)NC1=NN(C(C)=O)C(C)(c2ccccc2)S1` (centres undefined) yielded an IC50 of 0.74 µM.
`CC(=O)NC1=NN(C(C)=O)[C@](C)(c2ccccc2)S1` registered an IC50 of 0.493 µM.
